From ChEMBL document CHEMBL5576145, “Domoic Acid as a Lead for the Discovery of the First Selective Ligand for Kainate Receptor Subtype 5 (GluK5)” (J Med Chem, 2024) come the findings set out here.

pEC50, pIC50, pKi: −log10 of the molar value.

Test [1] addresses Glutamate receptor 4 (Rattus norvegicus) (UniProt P19493). Nature of the test: Displacement of [3H]-AMPA from AMPA in rat cortical synaptosomes assessed as remaining activity at 10 uM incubated for 30 mins by TopCount microplate scintillation counting method relative to control. Format: subcellular. The note with it: Cortex, Synaptosome. In general terms: In a radioligand displacement assay an active substance lowers the binding of a labelled ligand.

Test [2] is described as follows: Displacement of [3H]-KA from KA in rat cortical synaptosomes incubated for 60 mins by TopCount microplate scintillation counting method. Format: subcellular, Cortex, Synaptosome.
The target of test [3] is Glutamate receptor ionotropic, kainate 2 (Rattus norvegicus) (UniProt P42260). Nature of the test: Displacement of [3H]-KA from rat GluK2 assessed as percentage of radioligand binding at 10 uM relative to control.
Sequence of Glutamate receptor ionotropic, kainate 2 (Rattus norvegicus) (P42260 whole entry): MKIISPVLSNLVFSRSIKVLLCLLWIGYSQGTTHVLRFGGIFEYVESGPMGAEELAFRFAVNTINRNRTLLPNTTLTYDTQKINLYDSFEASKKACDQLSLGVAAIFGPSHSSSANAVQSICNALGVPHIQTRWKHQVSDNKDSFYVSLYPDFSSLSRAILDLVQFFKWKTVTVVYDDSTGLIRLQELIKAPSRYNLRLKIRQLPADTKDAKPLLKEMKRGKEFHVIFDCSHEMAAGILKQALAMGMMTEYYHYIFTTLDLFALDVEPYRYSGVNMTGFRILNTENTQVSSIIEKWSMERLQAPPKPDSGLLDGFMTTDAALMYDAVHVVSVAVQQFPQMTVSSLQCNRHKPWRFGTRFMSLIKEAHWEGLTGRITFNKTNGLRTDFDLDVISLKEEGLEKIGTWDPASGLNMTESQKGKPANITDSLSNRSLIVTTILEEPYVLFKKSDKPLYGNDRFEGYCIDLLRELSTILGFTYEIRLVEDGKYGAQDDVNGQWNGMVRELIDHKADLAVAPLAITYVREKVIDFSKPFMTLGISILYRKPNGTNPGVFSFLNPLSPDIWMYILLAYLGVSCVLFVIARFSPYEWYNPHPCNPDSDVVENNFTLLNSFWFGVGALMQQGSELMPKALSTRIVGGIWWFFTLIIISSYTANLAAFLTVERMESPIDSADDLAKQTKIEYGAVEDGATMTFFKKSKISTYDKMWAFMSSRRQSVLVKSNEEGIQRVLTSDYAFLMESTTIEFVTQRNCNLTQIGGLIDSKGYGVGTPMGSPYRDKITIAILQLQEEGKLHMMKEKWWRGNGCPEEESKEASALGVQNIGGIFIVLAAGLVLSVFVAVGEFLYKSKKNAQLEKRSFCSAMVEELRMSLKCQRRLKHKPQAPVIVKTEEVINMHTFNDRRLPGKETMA
Test [4] has as its target Glutamate receptor ionotropic, kainate 3 (Rattus norvegicus) (UniProt P42264). Description: Displacement of [3H]-KA from rat GluK3 assessed as percentage of radioligand binding at 10 uM relative to control.
Test [5] concerns the target Glutamate receptor ionotropic, kainate 1 (Rattus norvegicus) (UniProt P22756). Description: Displacement of [3H]-NF608 from rat GluK1 assessed as percent of radioligand binding at 10 uM relative to control.
Test [6] concerns the target T1, Glutamate receptor ionotropic, kainate 5 (Mus musculus, UniProt Q61626).
T1 sequence (Q61626 whole entry): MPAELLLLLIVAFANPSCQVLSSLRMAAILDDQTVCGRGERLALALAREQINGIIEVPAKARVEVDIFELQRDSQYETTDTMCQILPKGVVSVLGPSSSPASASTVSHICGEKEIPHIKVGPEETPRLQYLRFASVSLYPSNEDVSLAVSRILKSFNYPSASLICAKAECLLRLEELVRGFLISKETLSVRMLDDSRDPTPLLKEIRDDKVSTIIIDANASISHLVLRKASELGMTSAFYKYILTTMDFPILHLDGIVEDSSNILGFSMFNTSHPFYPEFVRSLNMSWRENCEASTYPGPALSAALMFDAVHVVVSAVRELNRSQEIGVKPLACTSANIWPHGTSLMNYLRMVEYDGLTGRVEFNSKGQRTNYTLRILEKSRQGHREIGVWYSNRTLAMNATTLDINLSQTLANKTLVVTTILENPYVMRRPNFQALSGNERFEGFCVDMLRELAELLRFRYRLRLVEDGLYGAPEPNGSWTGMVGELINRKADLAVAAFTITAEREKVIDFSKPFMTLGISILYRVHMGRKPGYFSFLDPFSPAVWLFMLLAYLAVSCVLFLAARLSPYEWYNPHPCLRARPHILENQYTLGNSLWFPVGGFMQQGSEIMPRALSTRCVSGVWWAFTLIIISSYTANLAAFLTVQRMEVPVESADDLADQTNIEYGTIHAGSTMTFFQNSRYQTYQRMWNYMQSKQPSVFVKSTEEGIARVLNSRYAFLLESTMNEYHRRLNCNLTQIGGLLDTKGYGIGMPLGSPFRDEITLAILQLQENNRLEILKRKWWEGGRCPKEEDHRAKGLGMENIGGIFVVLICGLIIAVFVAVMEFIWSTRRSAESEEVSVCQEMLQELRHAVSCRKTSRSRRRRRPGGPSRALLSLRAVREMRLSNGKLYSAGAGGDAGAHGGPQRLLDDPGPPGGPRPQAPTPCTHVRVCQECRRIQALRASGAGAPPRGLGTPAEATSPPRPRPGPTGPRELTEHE
Description: Displacement of [3H]-kainate from mouse GluK5 expressed in Sf9 cell membrane incubated for 2 hrs by scintillation counting method. Format: cell membranes.

A further test has as its target Glutamate NMDA receptor. Description: Displacement of [3H]CGP39653 from NMDA receptor in rat cortical synaptosomes incubated for 60 mins by Topcount microplate scintillation counting method. Format: subcellular, Cortex, Synaptosome.
Test [7] addresses T2, Glutamate receptor 4 (Rattus norvegicus, UniProt P19493). Nature of the test: Displacement of [3H]-AMPA from AMPA in rat synaptic membrane. Format: subcellular, Synaptosome.
Test [8] can be described thus: Displacement of [3H]-Kainic acid from KA in rat synaptic membrane. Format: subcellular, Synaptosome.
Test [9] deals with Glutamate NMDA receptor (Rattus norvegicus) (UniProt P35439+Q00959+Q00960+Q00961+Q62645+Q8VHN2+Q9R1M7). Description: Displacement of [3H]CGP39653 from NMDA receptor in rat cortical synaptosomes assessed as remaining activity at 10 uM incubated for 60 mins by Topcount microplate scintillation counting method relative to control. Format: subcellular. The note with it: Cortex, Synaptosome.

A further test is filed under the species Rattus norvegicus. Description: Displacement of [3H]-KA from KA in rat cortical synaptosomes assessed as remaining activity at 10 uM incubated for 60 mins by TopCount microplate scintillation counting method relative to control. The note with it: Cortex, Synaptosome. Format: subcellular.
In test [10] the target is T3, Glutamate receptor ionotropic, kainate 5 (Mus musculus) (UniProt Q61626).
T3 sequence (whole entry): T1 sequence (Q61626 whole entry)
Description: Displacement of [3H]-kainate from mouse GluK5 expressed in Sf9 cell membrane assessed as remaining activity at 10 uM incubated for 2 hrs by scintillation counting method relative to control. Format: cell membranes.

The test system of the next test is Hippocampus. Description: Reduction in CA1 spike amplitude in Wistar rat hippocampal slices after 20 mins of toxin administration. Format: functional, tissue-based.
Test [11] can be described thus: Displacement of [3H]-Kainic acid from KA in rat brain membrane preincubated for 15 mins followed by [3H]-Kainic acid addition and measured after 1 hr by scintillation counting method. Format: cell membranes.
Test [12] has as its target T2, Glutamate receptor 4. Description: Displacement of [3H]-AMPA from AMPA in rat brain membrane preincubated for 15 mins followed by [3H]-AMPA addition and measured after 40 mins by scintillation counting method. Format: cell membranes.
Test [13] can be described thus: Binding affinity to KA receptor in rat synaptosomes. Format: subcellular, Synaptosome.
Test [14] has as its target Glutamate receptor ionotropic, kainate 2 (Rattus norvegicus, UniProt P42260). Description: Displacement of [3H]-KA from rat GluK2.
Test [15] addresses Glutamate receptor ionotropic, kainate 1 (Rattus norvegicus, UniProt P22756). Nature of the test: Displacement of [3H]-NF608 from rat GluK1.
Test [16] concerns the target Glutamate receptor ionotropic, kainate 3 (Rattus norvegicus, UniProt P42264). Nature of the test: Displacement of [3H]-KA from rat GluK3.

Sequence of Glutamate receptor ionotropic, kainate 3 (Rattus norvegicus) (P42264 whole entry): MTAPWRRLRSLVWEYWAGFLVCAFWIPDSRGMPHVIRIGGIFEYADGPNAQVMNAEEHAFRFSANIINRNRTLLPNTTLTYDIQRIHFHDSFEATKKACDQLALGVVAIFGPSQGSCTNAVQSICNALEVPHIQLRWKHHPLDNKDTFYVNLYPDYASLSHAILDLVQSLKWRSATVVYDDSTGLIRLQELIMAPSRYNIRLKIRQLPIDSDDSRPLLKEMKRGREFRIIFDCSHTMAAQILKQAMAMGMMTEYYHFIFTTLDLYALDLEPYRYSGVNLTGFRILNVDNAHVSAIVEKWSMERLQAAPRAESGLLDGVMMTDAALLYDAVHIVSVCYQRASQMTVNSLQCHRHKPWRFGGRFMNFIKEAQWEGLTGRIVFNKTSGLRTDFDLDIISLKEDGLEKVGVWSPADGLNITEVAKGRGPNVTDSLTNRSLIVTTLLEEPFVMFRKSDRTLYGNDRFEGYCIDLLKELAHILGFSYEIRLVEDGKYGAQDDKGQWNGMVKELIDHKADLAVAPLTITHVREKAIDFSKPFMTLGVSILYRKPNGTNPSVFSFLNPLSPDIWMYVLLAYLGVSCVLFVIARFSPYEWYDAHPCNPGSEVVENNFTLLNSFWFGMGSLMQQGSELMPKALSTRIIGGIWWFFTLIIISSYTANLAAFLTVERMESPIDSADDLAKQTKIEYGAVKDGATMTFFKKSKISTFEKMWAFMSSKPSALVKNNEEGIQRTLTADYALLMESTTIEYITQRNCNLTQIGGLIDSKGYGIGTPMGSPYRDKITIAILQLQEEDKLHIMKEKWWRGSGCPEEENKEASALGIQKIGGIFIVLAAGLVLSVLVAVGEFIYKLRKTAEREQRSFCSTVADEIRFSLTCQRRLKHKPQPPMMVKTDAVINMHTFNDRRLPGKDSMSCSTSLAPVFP
Sequence of Glutamate receptor 4 (Rattus norvegicus) (P19493 whole entry): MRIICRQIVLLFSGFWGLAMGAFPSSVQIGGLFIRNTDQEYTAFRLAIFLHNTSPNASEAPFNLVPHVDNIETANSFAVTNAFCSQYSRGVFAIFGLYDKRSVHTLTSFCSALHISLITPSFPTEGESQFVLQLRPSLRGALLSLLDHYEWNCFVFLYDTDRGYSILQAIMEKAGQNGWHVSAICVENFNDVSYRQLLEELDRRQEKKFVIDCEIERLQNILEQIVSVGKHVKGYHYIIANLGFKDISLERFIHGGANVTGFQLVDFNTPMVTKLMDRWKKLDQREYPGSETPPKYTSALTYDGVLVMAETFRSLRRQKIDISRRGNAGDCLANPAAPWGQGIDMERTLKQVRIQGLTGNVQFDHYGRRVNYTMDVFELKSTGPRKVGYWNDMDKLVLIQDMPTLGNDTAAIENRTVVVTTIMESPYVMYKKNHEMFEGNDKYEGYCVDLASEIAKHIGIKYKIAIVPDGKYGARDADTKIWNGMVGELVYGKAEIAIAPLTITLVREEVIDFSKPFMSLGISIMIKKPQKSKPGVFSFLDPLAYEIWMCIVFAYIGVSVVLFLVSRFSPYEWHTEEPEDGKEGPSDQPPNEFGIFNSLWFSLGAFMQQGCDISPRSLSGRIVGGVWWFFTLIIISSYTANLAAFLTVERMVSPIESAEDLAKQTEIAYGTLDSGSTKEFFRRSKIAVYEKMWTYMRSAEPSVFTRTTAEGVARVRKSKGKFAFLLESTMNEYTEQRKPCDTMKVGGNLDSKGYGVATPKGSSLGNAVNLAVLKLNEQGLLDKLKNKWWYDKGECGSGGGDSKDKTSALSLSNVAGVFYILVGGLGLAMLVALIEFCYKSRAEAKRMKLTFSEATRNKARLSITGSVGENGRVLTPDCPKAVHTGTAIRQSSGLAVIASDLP
T2 sequence (P19493 whole entry): as above
Sequence of Glutamate receptor ionotropic, kainate 1 (Rattus norvegicus) (P22756 whole entry): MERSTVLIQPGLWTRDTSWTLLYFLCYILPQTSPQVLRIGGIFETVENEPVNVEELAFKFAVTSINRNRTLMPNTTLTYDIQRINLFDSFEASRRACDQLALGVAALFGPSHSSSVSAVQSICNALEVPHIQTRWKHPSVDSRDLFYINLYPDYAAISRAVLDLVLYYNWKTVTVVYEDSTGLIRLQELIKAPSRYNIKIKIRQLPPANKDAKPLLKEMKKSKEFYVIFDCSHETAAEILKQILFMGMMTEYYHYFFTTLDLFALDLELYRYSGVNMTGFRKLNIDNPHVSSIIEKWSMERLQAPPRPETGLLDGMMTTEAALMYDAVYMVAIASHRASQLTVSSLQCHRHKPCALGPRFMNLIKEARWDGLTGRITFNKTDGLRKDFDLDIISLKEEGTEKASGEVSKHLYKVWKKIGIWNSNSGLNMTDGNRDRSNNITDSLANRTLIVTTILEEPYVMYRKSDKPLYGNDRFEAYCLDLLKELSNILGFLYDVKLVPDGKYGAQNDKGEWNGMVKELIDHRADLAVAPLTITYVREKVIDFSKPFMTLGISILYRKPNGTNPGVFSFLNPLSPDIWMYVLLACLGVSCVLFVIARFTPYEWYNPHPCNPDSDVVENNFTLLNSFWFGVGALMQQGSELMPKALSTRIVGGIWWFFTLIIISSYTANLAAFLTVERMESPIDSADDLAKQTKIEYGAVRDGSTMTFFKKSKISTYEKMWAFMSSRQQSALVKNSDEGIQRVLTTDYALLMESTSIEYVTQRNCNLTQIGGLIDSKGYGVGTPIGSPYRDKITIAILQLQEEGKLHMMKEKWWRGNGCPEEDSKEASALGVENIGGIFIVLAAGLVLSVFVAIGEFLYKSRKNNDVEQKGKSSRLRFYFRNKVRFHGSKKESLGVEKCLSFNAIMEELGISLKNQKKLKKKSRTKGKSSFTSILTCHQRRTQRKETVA
Sequence of Glutamate receptor ionotropic, kainate 2 (P42260 whole entry): as the sequence (P42260 whole entry) above
Sequence of Glutamate receptor ionotropic, kainate 3 (P42264 whole entry): as the sequence (P42264 whole entry) above
Sequence of Glutamate receptor ionotropic, kainate 1 (P22756 whole entry): as the sequence (P22756 whole entry) above

In the case of `O=C(O)C[C@@H]1[C@@H](C(=O)O)NC[C@@H]1n1nncc1-c1cccc(C(F)(F)F)c1`, the Activity came out at 80% in test [1], 76% in test [3], 90% in test [4] and 92% in test [5]. Besides, the negative-log IC50 (pIC50) (usually −log10 of the IC50, conventionally taken in molar units) in test [2] was 5.29. Moreover, the negative-log Ki (pKi) (usually −log10 of the Ki, conventionally taken in molar units) is 5.67 in test [6] and 4.00 at Glutamate NMDA receptor.

As for `O=C(O)C[C@@H]1[C@@H](C(=O)O)NC[C@@H]1c1ccccc1O`, the values for the pIC50 (on Glutamate receptor 4 [7]; in test [8]) were 6.89 and 7.24, respectively.

As to `NCc1cnnn1[C@H]1CN[C@H](C(=O)O)[C@H]1CC(=O)O`, the Activity in test [1] stood at 100%; in test [9] it was 92%; in the test filed under Rattus norvegicus, 76%; in test [10], 85%; in test [3] it was 79%; in test [4], 81%. In addition, the Activity in test [5] worked out at 95%.

For `Nc1cccc(-c2cn([C@H]3CN[C@H](C(=O)O)[C@H]3CC(=O)O)nn2)c1`, the values for the Activity in [3], in [4] and in test [5] were 102%, 93% and 97%, respectively. For the same molecule, the pKi in test [6] is 5.49.

`C=C(C)[C@H]1CN[C@H](C(=O)O)[C@H]1CC(=O)O` [KAINIC ACID]: the results for the pIC50 (on Glutamate receptor 4 [7]; in test [8]) were 5.72 and 7.92, respectively.

As to `C=C(CC/C=C(\C)C(=O)O)[C@H]1CN[C@H](C(=O)O)[C@H]1CC(=O)O`, the pEC50 (usually −log10 of the EC50, conventionally taken in molar units) with Hippocampus was 5.43.

On to `O=C(O)C[C@@H]1[C@@H](C(=O)O)NC[C@@H]1n1nncc1C(=O)O`, for which the Activity in test [1] amounted to 85%; in test [9], 66%; in the test listed under Rattus norvegicus, 80%; in test [10], 89%; in test [3], 85%; in test [4], 79%. Further, the Activity in [5] worked out at 79%.

On to `O=C(O)C[C@@H]1[C@@H](C(=O)O)NC[C@@H]1n1nncc1-c1ccc(F)cc1F`, for which the Activity was determined as 73% in test [3], 90% in test [4] and 96% in test [5]. In [6], this molecule gave a negative-log Ki (pKi) of 5.27.

As for `COc1cccc(-c2cnnn2[C@H]2CN[C@H](C(=O)O)[C@H]2CC(=O)O)c1`, the Activity in test [3] came out at 89%; in test [4], 74%; in [5], 88%. In [6], the negative logarithm of the Ki (pKi) is 5.99.

On to `O=C(O)C[C@@H]1[C@@H](C(=O)O)NC[C@@H]1n1nncc1-c1cccc(F)c1`, for which the Activity turned out to be 76% in test [3], 58% in test [4] and 60% in test [5]. The same molecule had a negative logarithm of the Ki (pKi) in test [6] of 5.75.

With `O=C(O)C[C@@H]1[C@@H](C(=O)O)NC[C@@H]1n1nncc1CO`, the Activity in test [1] stood at 86%; in test [9], 102%; in test [3] it was 76%; in [4], 84%; in test [5], 94%. This molecule also showed a pIC50 in test [2] of 4.66. In [6], the pKi is 5.10.

With `CCc1ccc(-c2cnnn2[C@H]2CN[C@H](C(=O)O)[C@H]2CC(=O)O)cc1`, the Activity stood at 45% in test [10], 92% in [3], 83% in test [4] and 95% in test [5].

For `O=C(O)C[C@@H]1[C@@H](C(=O)O)NC[C@@H]1n1nncc1-c1ccc(C(F)(F)F)cc1`, the Activity in test [10] was determined as 62%; in test [3], 103%; in test [4], 85%; in test [5], 95%.

`C[C@H](CCC[C@@H](C)[C@H]1CN[C@H](C(=O)O)[C@H]1CC(=O)O)C(=O)O`: the pIC50 in test [11] is 4.57; on Glutamate receptor 4 [12], less than 4.00.

On to `Nc1nc([C@H]2CN[C@H](C(=O)O)[C@H]2CC(=O)O)cs1`, for which the negative logarithm of the IC50 (pIC50) in test [13] was 8.30.

As for `O=C(O)C[C@@H]1[C@@H](C(=O)O)NC[C@@H]1n1nncc1-c1ccccn1`, the negative logarithm of the Ki (pKi) in test [14] is 5.11; in test [15], 4.94; in test [16], 5.43; in [6], 6.59.

Take `C/C(=C/CC[C@@H](C)C(=O)O)[C@H]1CN[C@H](C(=O)O)[C@H]1CC(=O)O`: the pIC50 in [11] is 8.05; on Glutamate receptor 4 [12] it was 5.44.

Take `O=C(O)C[C@@H]1[C@@H](C(=O)O)NC[C@@H]1n1nncc1CCc1ccccc1`: the Activity in test [1] amounted to 98%; in [9], 98%; in test [3] it was 97%; in test [4], 90%; in [5], 94%. The molecule further showed a pIC50 in test [2] of 4.46. In test [6], the pKi is 5.25.

With `O=C(O)C[C@@H]1[C@@H](C(=O)O)NC[C@@H]1n1nncc1CN1CCS(=O)(=O)CC1`, the Activity worked out at 94% in test [10], 80% in test [3], 91% in test [4] and 97% in test [5].

Regarding `Cc1nc([C@H]2CN[C@H](C(=O)O)[C@H]2CC(=O)O)cs1`, the negative logarithm of the IC50 (pIC50) in test [13] is 8.22.

Consider `O=C(O)C[C@@H]1[C@@H](C(=O)O)NC[C@@H]1n1nncc1-c1cccnc1`, for which the Activity in [10] is 47%; in test [3], 92%; in [4], 80%; in test [5], 98%.

For the molecule `O=C(O)CCCc1cnnn1[C@H]1CN[C@H](C(=O)O)[C@H]1CC(=O)O`, the pKi in [14] was 5.11; in test [15], 4.97; in test [16], 5.21; in test [6], 6.32. The Activity in test [1] was 86%; in test [9], 90%. This molecule also showed a pIC50 in test [2] of 5.64.

Turning to `C/C(=C\C=C\[C@@H](C)C(=O)O)[C@H]1CN[C@H](C(=O)O)[C@H]1CC(=O)O` [DOMORIC ACID], the pIC50 in [11] was 6.03; at Glutamate receptor 4 [12], 4.92.

In the case of `O=C(O)C[C@@H]1[C@@H](C(=O)O)NC[C@@H]1c1ccc(C(=O)O)[nH]c1=O`, the negative logarithm of the IC50 (pIC50) on Glutamate receptor 4 [7] was 7.22; in test [8] it was 6.48.

As to `C/C(=C/C=C/[C@H](C)C(=O)O)[C@H]1CN[C@H](C(=O)O)[C@H]1CC(=O)O`, the pIC50 is 7.55 in test [11] and 5.24 on Glutamate receptor 4 [12].

Take `O=C(O)C[C@@H]1[C@@H](C(=O)O)NC[C@@H]1n1nncc1Cc1ccccc1`: the Activity came to 86% in test [1]; 87% in test [9]; 79% in the test listed under Rattus norvegicus; 92% in test [3]; 94% in [4]; 99% in test [5]. In test [6], this molecule showed a pKi of 4.95.

Consider `C/C(=C/C=C\[C@@H](C)C(=O)O)[C@H]1CN[C@H](C(=O)O)[C@H]1CC(=O)O`, for which the negative-log IC50 (pIC50) was 7.55 in test [11] and 4.77 on Glutamate receptor 4 [12].
